According to paper PMC3755041 (Chemistry & biology, 2013):
Each block holds one compound with its values, some of them ahead of it.

Legend:
[1] = target: T1, human peroxiredoxin-IV (hPrxIV) (Homo sapiens, UniProt Q13162); experiment: H2O2 consumption assay; assay type: biochemical
T1 sequence (Q13162 38-271): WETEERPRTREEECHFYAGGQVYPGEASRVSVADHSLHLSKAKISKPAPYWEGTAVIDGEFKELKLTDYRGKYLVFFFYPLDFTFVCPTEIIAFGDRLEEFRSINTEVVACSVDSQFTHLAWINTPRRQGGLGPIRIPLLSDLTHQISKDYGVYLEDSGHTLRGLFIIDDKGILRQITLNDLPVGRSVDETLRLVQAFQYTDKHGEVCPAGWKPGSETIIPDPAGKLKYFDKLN

[2] = target: T2, human peroxiredoxin-II (hPrxII) (Homo sapiens, UniProt P32119); experiment: H2O2 consumption assay; assay type: biochemical
T2 sequence (P32119 2-198): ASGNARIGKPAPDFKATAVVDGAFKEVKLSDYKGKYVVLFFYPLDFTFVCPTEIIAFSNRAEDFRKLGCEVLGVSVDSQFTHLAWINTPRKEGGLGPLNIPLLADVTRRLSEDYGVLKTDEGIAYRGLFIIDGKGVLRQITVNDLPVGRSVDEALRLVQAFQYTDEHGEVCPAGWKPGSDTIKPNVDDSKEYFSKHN

[3] = target: AcePrx-1 (peroxiredoxin-1) (Ancylostoma ceylanicum, UniProt J7HJM3); experiment: co-crystal structure; assay type: biochemical
[4] = target: T3, AcePrx-1 (peroxiredoxin-1) (Ancylostoma ceylanicum, UniProt J7HJM3); experiment: LC-ESI-MS of covalent adduct on purified protein; assay type: binding
T3 sequence (J7HJM3 1-196): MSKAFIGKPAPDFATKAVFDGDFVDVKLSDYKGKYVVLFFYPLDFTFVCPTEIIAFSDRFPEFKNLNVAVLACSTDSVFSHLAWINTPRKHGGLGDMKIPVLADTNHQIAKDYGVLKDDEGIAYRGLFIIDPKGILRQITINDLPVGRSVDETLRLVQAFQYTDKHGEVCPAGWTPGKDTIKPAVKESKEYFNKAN

[5] = target: AcePrx-1 containing a C-terminal histidine tag (Ancylostoma ceylanicum); experiment: SEC-MALS
[6] = target: Peroxiredoxin-1 from Ancylostoma ceylanicum, wild type, N-terminal histidine tag (Ancylostoma ceylanicum); experiment: SEC-MALS
[7] = target: Peroxiredoxin-1 from Ancylostoma ceylanicum, wild type, N-terminal histidine tag (Ancylostoma ceylanicum); experiment: non-reducing SDS-PAGE

Compound: [O-][n+]1c(CBr)c(CBr)[n+]([O-])c2ccccc21 [conoidin A, 2,3-bis(bromomethyl)quinoxaline-1,4-dioxide]
IC50 [1]: 262 µM | IC50 [2]: 358 µM | IC50 [3]: 374 µM

Compound: Cc1c(CBr)[n+]([O-])c2ccccc2[n+]1[O-] [conoidin B, 2-(bromomethyl)-3-methylquinoxaline-1,4-dioxide]
LC-ESI-MS of covalent adduct on purified protein [4]: Conoidin B reacted to wild type AcePrx-1 to produce a 189-Da adduct in LC-ESI-MS

stoichiometry N [5]: 10
Compound: AcePrx-1 containing a C-terminal histidine tag (enzyme)

stoichiometry N [6]: 10 | stoichiometry N [7]: 2
Compound: Peroxiredoxin-1 from Ancylostoma ceylanicum, wild type, N-terminal histidine tag (enzyme)
